We go through two compounds from publication PMC4360222 (International Journal of Neuropsychopharmacology, 2015).

Assay [1] addresses T1, D2-like autoreceptors (rat brain striatal minces, [3H]-DA synthesis) (Rattus norvegicus, UniProt P61169). Kind of assay: cell-based.
The test system of a further assay is D2 receptors. The following applies: ref Clark et al., 1985; Burris et al., 2002; Tadori et al., 2005; cited from earlier work.
The target of assay [2] is T1, D2-like autoreceptors (rat brain striatal minces, [3H]-DA synthesis).

Read-outs that look alike come from different tables or passages of the source.

T1 sequence (P61169 1-415 isoform P61169-2): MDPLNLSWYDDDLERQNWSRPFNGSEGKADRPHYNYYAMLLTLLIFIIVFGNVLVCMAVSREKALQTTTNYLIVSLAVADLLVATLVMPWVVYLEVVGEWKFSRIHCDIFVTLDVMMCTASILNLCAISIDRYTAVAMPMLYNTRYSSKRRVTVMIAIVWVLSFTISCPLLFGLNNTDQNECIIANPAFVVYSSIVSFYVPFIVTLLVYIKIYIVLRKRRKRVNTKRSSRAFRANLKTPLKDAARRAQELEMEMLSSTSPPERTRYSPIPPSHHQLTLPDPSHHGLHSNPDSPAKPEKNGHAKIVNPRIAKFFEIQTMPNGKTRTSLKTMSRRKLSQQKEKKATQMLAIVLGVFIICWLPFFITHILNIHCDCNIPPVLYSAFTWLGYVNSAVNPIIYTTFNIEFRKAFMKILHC

With `CCCN1CCC[C@@H](c2cccc(O)c2)C1` [Preclamol (S-(-)-PPP), (-)-3-(3-hydroxyphenyl)-N-n-propylpiperidine], the Emax in assay [1] (read-out: Emax, inhibition of [3H]-dopamine synthesis, basal 2mM K+) is 34%; in assay [1] (read-out: Emax, inhibition of [3H]-dopamine synthesis, stimulated 15mM K+), 31%; in assay [1] (read-out: maximal effect on DA synthesis, 2mM K+), -34%; in assay [1] (read-out: maximal effect on DA synthesis, 15mM K+), -31%. Also, the “reported affinity for D2 receptors” value in the assay on D2 receptors is recorded as “high-nanomolar/low-micromolar range”.
As to `CCN1CCC[C@H]1CNC(=O)c1cc(S(N)(=O)=O)ccc1OC` [sulpiride, (S)-(-)-sulpiride], the “blockade of QUIN decrease of DA synthesis by antagonist” value in assay [2] (2mM K+, data not shown) is listed as “totally blocked”. Besides, in assay [2] (sulpiride 100nM), the “reversal of decrease in DA synthesis elicited by 1nM S-(-)-PPP” value was “completely reversed”. For the same compound, in assay [2] (sulpiride 1 µM, 2mM K+), the “blockade of effect of ARI 1 µM on DA synthesis” value is recorded as “partially blocked” and the “blockade of inhibitory effect of ARI 10nM on DA synthesis” value is recorded as “fully eliminated”.
